Counter-ions that a name gives are not always drawn.
Target: T1, Human recombinant enteropeptidase (Homo sapiens, UniProt P98073)
T1 construct: purchased ITSI-Biosciences LLC #REN-260
Test: Human enteropeptidase inhibitory activity (Test Example 1)
Assay type: biochemical
Details: 3.3 μM test compound, inhibition rate from fluorescence intensity at 2 hours after the start of the reaction; for inhibition at 3.3 µM: read-out: 3.3 μM Inhibition
Procedure: Human recombinant enteropeptidase (#REN-260, ITSI-Biosciences LLC) was diluted with an assay buffer (50 mM Tricine, pH 8.0, 0.01 (w/v) %, Tween 20, 10 mM CaCl2) to prepare a 24 mU/mL enzyme solution. Subsequently, 5FAM-Abu-Gly-Asp-Asp-Asp-Lys-Ile-Val-Gly-Gly-Lys(CPQ2)-Lys-Lys-NH2 (SEQ ID NO: 1, purity: 97.2%, CPC Scientific Inc.) was diluted with the assay buffer to prepare a 2.1 μM substrate solution. A test compound is dissolved in DMSO into a 1 mM solution, and the solution was diluted by 100-fold with the assay buffer to give a compound solution. To a 384-well black plate (#784076, Greiner Bio-One), 5 μL of the compound solution and 5 μL of the substrate solution were added and mixed, and 5 μL of the enzyme solution was then added to the mixture, followed by mixing to start the reaction. The fluorescence intensity was measured with a fluorescence plate reader EnVision (The Perkin-Elmer Corp.) at an excitation wavelength of 485 nm and a fluorescence wavelength of 535 nm. The same reaction as above except that the test compound was not contained was performed (test compound non-addition group). Furthermore, the same reaction as above except that the test compound and the enzyme were not contained was performed (control group). The inhibition rate was calculated using the fluorescence intensity at 2 hours after the start of the reaction by the following expression: Inhibition rate (%)=(1−((fluorescence intensity of test compound addition group)−(fluorescence intensity of control group))/((fluorescence intensity of test compound non-addition group)−(fluorescence intensity of control group)))×100

T1 sequence (P98073 whole entry): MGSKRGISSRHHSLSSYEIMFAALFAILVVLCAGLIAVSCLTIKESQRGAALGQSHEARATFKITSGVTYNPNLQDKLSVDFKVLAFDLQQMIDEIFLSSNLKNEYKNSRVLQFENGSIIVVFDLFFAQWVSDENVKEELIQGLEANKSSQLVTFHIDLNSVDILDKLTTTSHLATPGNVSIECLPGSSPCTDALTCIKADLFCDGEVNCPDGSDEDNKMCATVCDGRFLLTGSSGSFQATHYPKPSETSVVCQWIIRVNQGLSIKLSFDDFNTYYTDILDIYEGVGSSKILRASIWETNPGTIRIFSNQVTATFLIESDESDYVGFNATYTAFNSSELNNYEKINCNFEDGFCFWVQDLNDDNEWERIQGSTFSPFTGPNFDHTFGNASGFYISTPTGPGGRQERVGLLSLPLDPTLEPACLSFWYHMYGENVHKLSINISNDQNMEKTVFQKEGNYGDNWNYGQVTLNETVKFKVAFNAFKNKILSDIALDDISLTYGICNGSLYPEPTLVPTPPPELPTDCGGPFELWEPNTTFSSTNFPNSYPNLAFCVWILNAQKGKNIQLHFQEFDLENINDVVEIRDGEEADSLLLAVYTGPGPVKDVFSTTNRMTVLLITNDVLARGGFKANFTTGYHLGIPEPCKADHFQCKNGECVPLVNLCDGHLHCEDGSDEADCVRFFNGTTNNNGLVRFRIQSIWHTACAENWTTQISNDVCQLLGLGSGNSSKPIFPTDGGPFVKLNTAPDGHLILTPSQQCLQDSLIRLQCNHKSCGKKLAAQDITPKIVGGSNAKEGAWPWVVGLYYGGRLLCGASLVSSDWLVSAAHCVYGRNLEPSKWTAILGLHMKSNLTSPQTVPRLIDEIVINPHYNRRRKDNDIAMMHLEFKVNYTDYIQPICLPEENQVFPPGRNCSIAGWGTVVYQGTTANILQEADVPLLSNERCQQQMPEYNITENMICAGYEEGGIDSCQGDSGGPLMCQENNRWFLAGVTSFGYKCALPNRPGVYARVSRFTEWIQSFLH

| Structure (SMILES) | inhibition at 3.3 µM | 3.3 μM Inhibition |
| --- | --- | --- |
| N=C(N)Nc1ccc2c(c1)CCCOc1c(cccc1C(=O)Nc1ccc(S(=O)(=O)O)cc1)OC2=O [Example 5, N-(((10-carbamimidamido-13-oxo-6,7,8,13-tetrahydro-dibenzo[b,f] [1,4]dioxecin-4-yl)carbonyl)amino) benzenesulfonic acid] | 101% |  |
| N=C(N)Nc1ccc2c(c1)CCCOc1c(cccc1C(=O)N(CC(=O)O)Cc1ccc(CC(=O)O)cc1)OC2=O [Example 142, N-((10-carbamimidamido-13-oxo-6,7,8,13-tetrahydro-dibenzo[b,f] [1,4]dioxecin-4-yl)carbonyl)-N-(4-(carboxymethyl)benzyl)glycine] | 98% |  |
| N=C(N)Nc1ccc2c(c1)CCCOc1c(cccc1C(=O)N[C@@H](CCC(N)=O)C(=O)O)OC2=O [Example 16, N^~2^~-((10-carbamimidamido-13-oxo-6,7,8,13-tetrahydro-dibenzo[b,f] [1,4]dioxecin-4-yl)carbonyl)-L-glutamine] | 101% |  |
| N=C(N)c1ccc2c(c1)CCc1cc(C(=O)N[C@@H](CC(=O)O)C(=O)O)ccc1C(=O)O2 [Example 63, N-((2-carbamimidoyl-6-oxo-11,12-dihydro-6H-dibenzo[b,f]oxocin-9-yl)carbonyl)-L-aspartic acid] | 93% |  |
| N=C(N)Nc1ccc2c(c1)CCCCCCc1c(cccc1C(=O)N[C@@H](CC(=O)O)C(=O)O)OC2=O [Example 77, N-((3-Carbamimidamido-16-oxo-5,7,8,9,10,16-hexahydro-6H-dibenzo[b,j]oxacyclododecin-11-yl)carbonyl)-L-aspartic acid] | 99% |  |
| N=C(N)Nc1ccc2c(c1)CCCCc1c(CCC(=O)N[C@@H](CC(=O)O)C(=O)O)cccc1OC2=O [Example 83, N-(3-(3-carbamimidamido-14-oxo-5,7,8,14-tetrahydro-6H-dibenzo[b,h]oxecin-9-yl)propanoyl)-L-aspartic acid] | 102% |  |
| N=C(N)Nc1ccc2c(c1)OCCCCOc1c(CCC(=O)N[C@@H](CC(=O)O)C(=O)O)cccc1OC2=O [Example 42, N-(3-(3-Carbamimidamido-16-oxo-6,7,8,9-tetrahydro-16H-dibenzo[b,f][1,4,8]trioxacyclododecin-11-yl)propanoyl)aspartic acid trifluoroacetate] | 100% |  |
| N=C(N)Nc1ccc2c(c1)CCCOc1c(cccc1C(=O)NCP(=O)(O)O)OC2=O [Example 25, ((((10-carbamimidamido-13-oxo-6,7,8,13-tetrahydro-dibenzo[b,f] [1,4]dioxecin-4-yl)carbonyl)amino)methyl)phosphonic acid] | 102% |  |
| N=C(N)Nc1ccc2c(c1)CCc1cccc(CCC(=O)N[C@@H](CC(=O)O)C(=O)O)c1OC2=O [Example 54, N-(3-(9-carbamimidamido-6-oxo-11,12-dihydro-6H-dibenzo[b,f]oxocin-4-yl)propanoyl)-L-aspartic acid] | 89% |  |
| N=C(N)Nc1ccc2c(c1)CCCOc1c(cccc1C(=O)N[C@H](CC(=O)O)C(=O)O)OC2=O [Example 2, N-((10-Carbamimidamido-13-oxo-6,7,8,13-tetrahydrodibenzo[b,f][1,4]dioxecin-4-yl)carbonyl)-D-aspartic acid] | 101% |  |
| CN(C(=O)CCc1cccc2c1OCCCc1cc(NC(=N)N)ccc1C(=O)O2)[C@@H](CC(=O)O)C(=O)O [Example 102, N-(3-(10-carbamimidamido-13-oxo-6,7,8,13-tetrahydro-dibenzo[b,f] [1,4]dioxecin-4-yl)propanoyl)-N-methyl-L-aspartic acid] | 101% |  |
| N=C(N)Nc1ccc2c(c1)CCCOc1c(cccc1C(=O)N(CC(=O)O)CC(=O)N(CC(=O)O)CC(=O)O)OC2=O [Example 115, ((2-(Bis(carboxymethyl)amino)-2-oxoethyl) ((10-carbamimidamido-13-oxo-6,7,8,13-tetrahydrodibenzo[b,f][1,4]dioxecin-4-yl)carbonyl)amino)acetic acid] | 99% |  |
| N=C(N)Nc1ccc2c(c1)CCc1c(CCC(=O)N[C@@H](CC(=O)O)C(=O)O)cccc1OC2=O [Example 57, N-(3-(9-Carbamimidamido-6-oxo-11,12-dihydro-6H-dibenzo[b,f]oxocin-1-yl)propanoyl)-L-aspartic acid trifluoroacetate] | 100% |  |
| CC1CCCc2cc(NC(=N)N)ccc2C(=O)Oc2cccc(C(=O)N[C@@H](CC(=O)O)C(=O)O)c21 (stereo partly drawn) [Example 21, N-((3-carbamimidamido-8-methyl-14-oxo-5,7,8,14-tetrahydro-6H-dibenzo[b,h]oxecin-9-yl)carbonyl)-L-aspartic acid] | 102% |  |
| N=C(N)c1ccc2c(c1)CCc1c(C(=O)N[C@@H](CC(=O)O)C(=O)O)cccc1C(=O)O2 [Example 62, N-((2-Carbamimidoyl-6-oxo-11,12-dihydro-6H-dibenzo[b,f]oxocin-10-yl)carbonyl)-L-aspartic acid trifluoroacetate] | 84% |  |
| N=C(N)Nc1ccc2c(c1)CCCOc1c(cc(CCC(=O)O)cc1C(=O)N[C@@H](CC(=O)O)C(=O)O)OC2=O [Example 117, N-((10-carbamimidamido-2-(2-carboxyethyl)-13-oxo-6,7,8,13-tetrahydro-dibenzo[b,f] [1,4]dioxecin-4-yl)carbonyl)-L-aspartic acid] | 100% |  |
| N=C(N)Nc1ccc2c(c1)OCCCOc1cc(CCC(=O)N[C@@H](CC(=O)O)C(=O)O)ccc1OC2=O [Example 51, N-(3-(3-carbamimidamido-15-oxo-7,8-dihydro-6H,15H-dibenzo[b,f][1,4,8]trioxacyclo-undecin-11-yl)propanoyl) aspartic acid] |  | 101% |
| COc1ccc(C[C@H](NC(=O)c2c(CCC(=O)NC(CC(=O)O)CC(=O)O)ccc3c2OCCCc2cc(NC(=N)N)ccc2C(=O)O3)C(=O)O)cc1 [Example 132, 3-((3-(10-carbamimidamido-4-(((1S)-1-carboxy-2-(4-methoxyphenyl)ethyl)carbamoyl)-13-oxo-6,7,8,13-tetrahydro-dibenzo[b,f] [1,4]dioxecin-3-yl)propanoyl)amino) pentanedioic acid] | 100% |  |
| N=C(N)Nc1ccc2c(c1)CCCOc1c(cccc1C(=O)NC(CC(=O)O)CC(=O)O)OC2=O [Example 11, 3-(((10-Carbamimidamido-13-oxo-6,7,8,13-tetrahydrodibenzo[b,f][1,4]dioxecin-4-yl)carbonyl)amino)pentanedioic acid] | 101% |  |
| N=C(N)Nc1ccc2c(c1)CCCOc1c(cc(Cl)cc1C(=O)N[C@@H](CC(=O)O)C(=O)O)OC2=O [Example 66, N-((10-carbamimidamido-2-chloro-13-oxo-6,7,8,13-tetrahydro-dibenzo[b,f] [1,4]dioxecin-4-yl)carbonyl)-L-aspartic acid] | 101% |  |
| N=C(N)Nc1ccc2c(c1)CCCOc1ccc(CCC(=O)N[C@@H](CC(=O)O)C(=O)O)cc1OC2=O [Example 78, N-(3-(10-carbamimidamido-13-oxo-6,7,8,13-tetrahydro-dibenzo[b,f] [1,4]dioxecin-2-yl)propanoyl) aspartic acid] | 93% |  |
| N=C(N)Nc1ccc2c(c1)CCCOc1c(cccc1C(=O)N(Cc1ccccc1)[C@@H](CC(=O)O)C(=O)O)OC2=O [Example 107, N-benzyl-N-((10-carbamimidamido-13-oxo-6,7,8,13-tetrahydro-dibenzo[b,f] [1,4]dioxecin-4-yl)carbonyl)-L-aspartic acid] | 101% |  |
| N=C(N)Nc1ccc2c(c1)CCCCOc1c(cccc1C(=O)N[C@@H](CC(=O)O)C(=O)O)OC2=O [Example 82, N-((11-carbamimidamido-14-oxo-7,8,9,14-tetrahydro-6H-dibenzo[b,f][1,4]dioxacycloundecin-4-yl)carbonyl)-L-aspartic acid] | 102% |  |
| N=C(N)Nc1ccc2c(c1)CCCOc1c(cccc1C(=O)N[C@@H](CO)C(=O)O)OC2=O [Example 86, N-((10-carbamimidamido-13-oxo-6,7,8,13-tetrahydro-dibenzo[b,f] [1,4]dioxecin-4-yl)carbonyl)-L-serine] | 101% |  |
| COc1ccc(C[C@H](NC(=O)c2c(CCC(=O)N(CC(=O)O)CC(=O)O)ccc3c2OCCCc2cc(NC(=N)N)ccc2C(=O)O3)C(=O)O)cc1 [Example 130, N-((3-(3-(bis(carboxymethyl)amino)-3-oxopropyl)-10-carbamimidamido-13-oxo-6,7,8,13-tetrahydro-dibenzo[b,f] [1,4]dioxecin-4-yl)carbonyl)-O-methyl-L-tyrosine] | 99% |  |
| CN(C(=O)c1c(CCC(=O)O)ccc2c1OCCCc1cc(NC(=N)N)ccc1C(=O)O2)[C@@H](CC(=O)O)C(=O)O [Example 118, N-((10-Carbamimidamido-3-(2-carboxyethyl)-13-oxo-6,7,8,13-tetrahydrodibenzo[b,f][1,4]dioxecin-4-yl)carbonyl)-N-methyl-L-aspartic acid] | 101% |  |

Reference: patent publication US9975903B2, “Condensed heterocyclic compound” (Takeda Pharmaceutical Company Limited, priority 2014, dated 2018)
